# Measurements published in patent US12064437B2, “Methods for treating systemic lupus erythematosus and the use of biomarkers as a predictor of clinical sensitivity to therapies” (CELGENE CORPORATION, priority 2020, dated 2024).
# Tested on: subjects with active autoantibody-positive SLE
# Experiment: Exposure-response analysis: logistic regression of SRI(4) response on iberdomide AUCss
# Type: in vivo, human
# Method: PK assessments were performed. Exposure-response analysis included subjects from Study SLE-002 who had both posthoc estimated iberdomide PK metric of AUCss from the final population PK model and efficacy data.
# The effect of iberdomide exposure on SRI(4) response was further evaluated by multivariate logistic modeling. Subject characteristics of baseline oral OCS (yes as reference), baseline antimalarials (yes as reference), categorical variables of Type I IFN and IKZF3 (Aiolos) signature (low as reference) were tested in regression analysis. Subjects with IFKZ3 (Aiolos) high gene signature were associated with better response (p=0.033) (Table 2).
# [1] = AUCss on IFKZ3 (Aiolos) High Subset
smiles,measurement,setting,value
"O=C1CC[C@H](N2Cc3c(OCc4ccc(CN5CCOCC5)cc4)cccc3C2=O)C(=O)N1 [iberdomide, (S)-3-[4-({4-[(morpholin-4-yl)methyl]phenyl}methoxy)-1-oxo-1,3-dihydro-2H-isoindol-2-yl]piperidine-2,6-dione-hydrogen chloride (1/1)]",OR (odds ratio) of Multivariate Logistic Model for SRI(4),[1],1.102
same,Parameter Estimate of Multivariate Logistic Model for SRI(4),[1],0.0969
same,relationship of binary response SRI(4) to iberdomide AUCss (logistic regression),dose range 0.15 mg to 0.45 mg QD,no relationship
